Series [1] in a line: Lipophilicity, shake flask method with octanol and buffer (pH 7.4). Particulars: pH 7.4. The class given is physicochemical. The protocol:
The lipophilicity of eurycomanone was estimated using the shake flask method with octanol and buffer (pH 7.4). Eurycomanone (5 µL) at 5 mM concentration is added to octanol (495 µL) and DMSO (495 µL) and also into the aqueous and octanol phase in a 1:1 ratio ([…] of octanol phase and 247.5 µL of aqueous phase). The octanol and aqueous phases were prepared using a saturation process, where equal amounts of D-PBS (pH 7.4) and octanol were saturated (300 rpm, room temperature) for 24 h before being separated and kept at room temperature. The prepared mixtures were vortexed and kept on the shaker (300 rpm) at room temperature for 16 h. The mixtures were allowed to stand for 30 min, and 200 µL of solution was transferred and sent for HPLC analysis.

The nature of a further series: Aqueous solubility. In kind it is physicochemical. The procedure: The aqueous […] was estimated by adding 10 µL of eurycomanone stock solution (10 mM) to 490 µL of aqueous buffer at pH 5.4, pH 7.4 and DMSO in triplicates in deep-well plates. […] The plate was kept on a shaker (300 rpm) at room temperature for 16 h. The plate was then centrifuged at 25 °C, 4000 rpm for 25 min. The supernatant was transferred and analysed using LC-MS/MS.
Peak area 1 = peak area of the compound in 2% DMSO at the different pH levels.
Peak area 2 = peak area of the compound in 100% DMSO.

Series [2] is described as follows: Caco-2 cell permeability assay. In kind it is in vitro ADME. The following applies: human, Caco-2, Efflux Ratio. The procedure: The Caco-2 assay was carried out after seeding the cells onto the membrane to form a confluent monolayer in 21 days. The media is removed from apical (A) and basolateral (B) chambers and the membrane is washed with HBSS buffer. Eurycomanone (10 µM, 200 µL) was added to the A compartment (which represents the intestinal lumen), and buffer (300 µL) was added to the B compartment (representing the blood), and vice versa. The plate was kept in a shaking incubator (37 °C) for 1 h. The amount of eurycomanone that had permeated across the cells was measured by LC-MS/MS, and the apparent permeability (Papp) values and efflux ratio were calculated. The expression of P-glycoprotein (P-gp) by differentiated Caco-2 cells was confirmed by measuring the Papp value and efflux ratio of vinblastine with and without the presence of a competing P-gp substrate, cyclosporine A. Eurycomanone was also measured with the presence of cyclosporine A to investigate whether eurycomanone may be transported via P-gp transporters.
(Caco-2 cells form a polarised layer with tight junctions and transporters.)

Counter-ions that a name gives are not always drawn.

In general, logD refers to lipophilicity at a set pH, counting ionised and neutral species. One may read the efflux ratio as a quotient of directional permeabilities that is used to spot active efflux.

Molecule `COCCc1ccc(OCC(O)CNC(C)C)cc1` (stereo not drawn) [metoprolol, metoprolol tartrate] displayed a logD at 16 h in series [1] of -0.29. On to `CC/C(=C(/CC)c1ccc(O)cc1)c1ccc(O)cc1` [diethylstilbestrol], for which the log distribution coefficient (logD) at 16 h in series [1] was found to be 3.18. In the case of `C[C@]12CC[C@@H]3c4ccc(O)cc4CC[C@H]3[C@@H]1C[C@@H](O)[C@@H]2O` [Estriol, estriol, reference compound], the logD at 16 h in series [1] turned out to be 2.82. The Aqueous solubility entry in “Aqueous solubility” (pH 5.4) and in “Aqueous solubility” (pH 7.4) was “moderate solubility” throughout.

For the molecule `CC[C@]1(O)C[C@@H]2CN(CCc3c([nH]c4ccccc34)[C@@](C(=O)OC)(c3cc4c(cc3OC)N(C)[C@H]3[C@@](O)(C(=O)OC)[C@H](OC(C)=O)[C@]5(CC)C=CCN6CC[C@]43[C@@H]65)C2)C1` [Vinblastine, vinblastine, reference compound], the efflux ratio at 1 h, 10 µM in series [2] came to 14.7.

Source of the values: PMC6161288, “Bioavailability of Eurycomanone in Its Pure Form and in a Standardised Eurycoma longifolia Water Extract” (Pharmaceutics, 2018).
